Test results: patent US12011455B2, “Enhancing plasmin activity to prevent soft tissue calcification” (Vanderbilt University, priority 2016, dated 2024)

Test system: CTX-injured skeletal muscle of mice
Experiment: Cardiotoxin-induced muscle injury model, radiographic/μCT soft tissue calcification and HO
Assay type: in vivo, mouse
Settings: Plg+/− mice, 7 DPI, vs control
Protocol: Cardiotoxin-Induced Muscle Injury Model: Skeletal muscle injury was induced by an intramuscular injection of 40 μL of 10 nM Cardiotoxin (CTX, Accurate Chemical and Scientific Corp; Westbury, NY) in the posterior compartments of the lower extremities of male C57/B6 mice. Briefly, following anesthetization with Isoflurane, CTX was injected into the lateral aspect of the posterior compartment using a 28.5 G, 0.5 cc insulin syringe. The CTX induces massive local myocyte depolarization, leading to myocyte death. However, muscle resident stem cells are unaffected by the CTX, thereby allowing for muscle regeneration following injury. […]
Radiographic Analysis and Quantification of HO: Quantification was performed as described. […] These images underwent post-image standardization and were quantified with the previously validated heterotopic ossification scoring scale. […] A blinded reviewer assessed all scores (a score of 1=0-24%, a score of 2=25%-49%, a score of 3=50%-74%, and a score of 4=>75% of the lower extremity containing radiographically evident HO).
Ex vivo μCT Imaging and Quantification of HO: μCT mages were acquired (μCT40, Scanco Medical AG, Bassersdorf, Switzerland) following specimen harvest of injured hindlimbs at 55 kVp, 145 uA, 200 ms integration, 500 projections per 180° rotation, with a 20 μm isotropic voxel size. […] Mineral volume was then calculated using the Scanco evaluation software.

## Fbg^ASO: Fibrinogen antisense oligonucleotide GCTTTGATCAGTTCTTTGGC; phosphorothioate backbone, 2′ O methoxyethyl wings (all phosphorothioate, sugars by position and methylation of C not given here; 2'-O-methoxyethyl wings)
  soft tissue calcification after CTX injury (μCT/radiographs): failed to prevent soft tissue calcification
Listed as fibrinogen^ASO
  soft tissue calcification after CTX injury (μCT/radiographs): marked soft tissue calcification formation
